Assay results reported in PubChem BioAssay AID1963864 (Molecular Pharmacology Branch, DTP, NCI, 2024).

Test system: KRAS PDC multicell spheroid viability
Assay: Anticancer human tumor 521955-158-R6-J3-PDC patient-derived pancreatic carcinoma cell line growth inhibition [KRAS2]
Settings: for IC50: curve of first compound; for viability, T/C: stronger effect = lower value
Text: Multicellular complex tumor spheroid response to RAS pathway inhibitors in combination with a targeted agents in patient-derived cell lines with oncogenic KRAS variants from multiple cancer types
A high-throughput screen of multi-cell type tumor spheroids was designed to identify active combinations of targeted small molecules and KRAS pathway inhibitors. Complex spheroids include a stromal component modeled by human endothelial cells (HUVEC) and fibroblasts modeled by human mesenchymal stem cells (MSCs). The concentration ranges selected for each drug and investigational agent were based upon clinically achievable concentrations if the clinical Cmax of the agent was known.
Compounds. The drugs and investigational agents: BI-3406 (NSC825286), BAY-293 (NSC824723), batoprotafib (TNO155; NSC825523), sotorasib (AMG 510; NSC818433), MRTX1257 (NSC819558), elimusertib (BAY 1895344; NSC800525), molibresib (GSK525762; NSC774829), temuterkib (LY3214996; NSC803410), venetoclax (NSC766270), alisertib (NSC759677), olaparib (NSC753686), talazoparib (NSC767125), erdafitinib (NSC781556), ipatasertib (NSC767898), cabozantinib (NSC761068), nintedanib (NSC756659), abemaciclib (NSC768073), docetaxel (NSC628503), trametinib (NSC758246), and sapanisertib (NSC764658) were obtained from the National Cancer Institute (NCI) Developmental Therapeutics Program Chemical Repository. The FDA-approved anticancer drug set is available from the Developmental Therapeutics Program. […] The stock solutions were prepared in dimethyl sulfoxide (DMSO, Sigma-Aldrich, St. Louis, MO, cat. D2650) at 800-fold the tested concentration and stored at -70 degrees C prior to their use. All drugs and investigational agents were tested over a range starting from a high concentration at or near the clinical Cmax and decreasing in half-log increments. If the clinical Cmax for an agent had not been determined, the highest concentration tested was 10 microM.
Cell Culture. All cells were maintained in an incubator at 37 degrees C and 5% CO2 with 95% humidity. The PDC lines were cultured according to standard operating procedures established by the NCI PDMR (https://pdmr.cancer.gov/sops/default.htm). Briefly, all PDCs were thawed and cultured in Matrigel-coated flasks prepared with a working solution of 1X Ham's F-12 nutrient mix, without supplementation (Invitrogen, Waltham, MA, cat. 11765054), 100 U/mL penicillin-streptomycin (Invitrogen, cat. 15140122), and 2.5% Matrigel (Corning Inc., Corning, NY, cat. 354248) for the first three passages. All PDCs were cultured in complete DMEM/F-12 media containing advanced DMEM/F-12 (Invitrogen, cat. 12634028), 4.9% defined fetal bovine serum, heat inactivated (HyClone Laboratories Inc., Logan, UT, cat. SH30070.03HI), 389 ng/mL hydrocortisone (Sigma-Aldrich, cat. H4001), 9.7 ng/mL human EGF recombinant protein (Invitrogen, cat. PHG0313), 23.4 microg/mL adenine (Sigma-Aldrich, cat. A2786), 97.3 U/mL penicillin-streptomycin (Invitrogen, cat. 15140122), 1.9 mM L-glutamine (Invitrogen, cat. 25030081), and 9.7 microM Y-27632 dihydrochloride (Tocris Bioscience, Bristol, United Kingdom, cat. 1254). The PDCs were cultured in complete DMEM/F12 media without 9.7 microM Y-27632 dihydrochloride for at least two passages prior to the screen. The established cell line HOP-62 was cultured in RPMI 1640 medium, HEPES (Invitrogen, cat. 22400105) with 10% defined fetal bovine serum (HyClone Laboratories Inc., cat. SH30070.03) and 2 mM L-glutamine (Invitrogen, cat. 25030081). The pooled donor HUVEC were cultured in endothelial cell growth medium 2 (PromoCell, Heidelberg, Germany, cat. C-22011) and the hMSC were cultured in mesenchymal stem cell growth medium 2 (PromoCell, cat. C-28009). For all experiments, HUVEC and hMSC were used at passages </=5, while the malignant cell lines were used at passages </=15. […]

[1] = second compound 0.1 µM, first compound 0.0316 µM
[2] = second compound 0.1 µM, first compound 0.1 µM
[3] = second compound 0.316 µM, first compound 0.0316 µM
[4] = second compound 0.316 µM, first compound 0.1 µM
[5] = second compound 1 µM, first compound 0.0316 µM
[6] = second compound 1 µM, first compound 0.1 µM
[7] = second compound 3.16 µM, first compound 0.0316 µM
[8] = second compound 3.16 µM, first compound 0.1 µM
[9] = second compound 10 µM, first compound 0.0316 µM
[10] = second compound 10 µM, first compound 0.1 µM
[11] = second compound 0.1 µM, first compound 0.316 µM
[12] = second compound 0.1 µM, first compound 1 µM
[13] = second compound 0.1 µM, first compound 3.16 µM
[14] = second compound 0.1 µM, first compound 10 µM
[15] = second compound 0.316 µM, first compound 0.316 µM
[16] = second compound 0.316 µM, first compound 1 µM
[17] = second compound 0.316 µM, first compound 3.16 µM
[18] = second compound 0.316 µM, first compound 10 µM
[19] = second compound 1 µM, first compound 0.316 µM
[20] = second compound 1 µM, first compound 1 µM
[21] = second compound 1 µM, first compound 3.16 µM
[22] = second compound 1 µM, first compound 10 µM
[23] = second compound 3.16 µM, first compound 0.316 µM
[24] = second compound 3.16 µM, first compound 1 µM
[25] = second compound 3.16 µM, first compound 3.16 µM
[26] = second compound 3.16 µM, first compound 10 µM
[27] = second compound 10 µM, first compound 0.316 µM
[28] = second compound 10 µM, first compound 1 µM
[29] = second compound 10 µM, first compound 3.16 µM
[30] = second compound 10 µM, first compound 10 µM
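Note: drug exposure lasted seven days.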
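Throughout, for viability, T/C: 100% = DMSO vehicle wells and lower means fewer viable cells.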

Row | Compound | IC50 (second compound 0.1 µM) [nM] | IC50 (second compound 0.316 µM) [nM] | IC50 (second compound 1 µM) [nM] | IC50 (second compound 3.16 µM) [nM] | IC50 (second compound 10 µM) [nM] | viability, T/C [1] [%] | viability, T/C [2] [%] | viability, T/C [3] [%] | viability, T/C [4] [%] | viability, T/C [5] [%] | viability, T/C [6] [%] | viability, T/C [7] [%] | viability, T/C [8] [%] | viability, T/C [9] [%] | viability, T/C [10] [%] | viability, T/C [11] [%] | viability, T/C [12] [%] | viability, T/C [13] [%] | viability, T/C [14] [%] | viability, T/C [15] [%] | other results
1 | CC(C)n1nc(-c2ccc3oc(N)nc3c2)c2c(N)ncnc21 + CNCc1ccccc1-c1csc(C(C)Nc2nc(C)nc3cc(OC)c(OC)cc23)c1 | 77.2 | 41.3 | 64.8 | < 0.316 | < 0.316 | 63.3 | 46.2 | 54.3 | 42.1 | 54.6 | 47.2 | 1.57 | 1.6 | 0.16 | 0.24 |  |  |  |  |  | viability, T/C (second compound 0.1 µM, first compound 0.000316 µM): 88.1%; viability, T/C (second compound 0.1 µM, first compound 0.001 µM): 89.9%; viability, T/C (second compound 0.1 µM, first compound 0.00316 µM): 81.2%; viability, T/C (second compound 0.1 µM, first compound 0.01 µM): 71.2%; viability, T/C (second compound 0.316 µM, first compound 0.000316 µM): 82.3%; viability, T/C (second compound 0.316 µM, first compound 0.001 µM): 81.1%; viability, T/C (second compound 0.316 µM, first compound 0.00316 µM): 74.6%; viability, T/C (second compound 0.316 µM, first compound 0.01 µM): 61.1%; viability, T/C (second compound 1 µM, first compound 0.000316 µM): 78.5%; viability, T/C (second compound 1 µM, first compound 0.001 µM): 73%; viability, T/C (second compound 1 µM, first compound 0.00316 µM): 73.6%; viability, T/C (second compound 1 µM, first compound 0.01 µM): 64.2%; viability, T/C (second compound 3.16 µM, first compound 0.000316 µM): 1.65%; viability, T/C (second compound 3.16 µM, first compound 0.001 µM): 1.07%; viability, T/C (second compound 3.16 µM, first compound 0.00316 µM): 1.66%; viability, T/C (second compound 3.16 µM, first compound 0.01 µM): 1.02%; viability, T/C (second compound 10 µM, first compound 0.000316 µM): 0.75%; viability, T/C (second compound 10 µM, first compound 0.001 µM): 0.17%; viability, T/C (second compound 10 µM, first compound 0.00316 µM): 0.16%; viability, T/C (second compound 10 µM, first compound 0.01 µM): 0.15%
2 | CC1OCC2(CCN(c3cnc(Sc4ccnc(N)c4Cl)c(N)n3)CC2)C1N (stereo not given) + COc1cc2nc(C)nc(NC(C)c3cc(N)cc(C(F)(F)F)c3)c2cc1OC1CCOC1 | > 10000 | > 10000 | > 10000 | > 10000 | < 31.6 | 90.6 | 82.6 | 82.6 | 86.1 | 78 | 82.1 | 76.5 | 79.7 | 43.7 | 34 | 74.8 | 86.5 | 116 | 114 | 96.8 | viability, T/C [16]: 87.5%; viability, T/C [17]: 112%; viability, T/C [18]: 118%; viability, T/C [19]: 85%; viability, T/C [20]: 83.7%; viability, T/C [21]: 103%; viability, T/C [22]: 124%; viability, T/C [23]: 77.2%; viability, T/C [24]: 76.9%; viability, T/C [25]: 99.2%; viability, T/C [26]: 94.6%; viability, T/C [27]: 35.8%; viability, T/C [28]: 27.1%; viability, T/C [29]: 34.1%; viability, T/C [30]: 18%
3 | COC(=O)c1ccc2c(C(=Nc3ccc(N(C)C(=O)CN4CCN(C)CC4)cc3)c3ccccc3)c(O)[nH]c2c1 + CC1OCC2(CCN(c3cnc(Sc4ccnc(N)c4Cl)c(N)n3)CC2)C1N | 2590 | 2150 | 2120 | 2150 | 1470 | 79.8 | 88.5 | 82.5 | 102 | 106 | 104 | 101 | 120 | 94.8 | 94.8 | 108 | 114 | 40 | 1.22 | 110 | viability, T/C [16]: 113%; viability, T/C [17]: 23.6%; viability, T/C [18]: 0.76%; viability, T/C [19]: 111%; viability, T/C [20]: 95.6%; viability, T/C [21]: 25.5%; viability, T/C [22]: 0.47%; viability, T/C [23]: 103%; viability, T/C [24]: 99.2%; viability, T/C [25]: 25.4%; viability, T/C [26]: 0.29%; viability, T/C [27]: 83.7%; viability, T/C [28]: 72.2%; viability, T/C [29]: 6.64%; viability, T/C [30]: 2.18%
4 | CCNC(=O)CC1N=C(c2ccc(Cl)cc2)c2cc(OC)ccc2-n2c(C)nnc21 (stereo not given) + C=CC(=O)N1CCN(c2nc(OCC3CCCN3C)nc3c2CCN(c2cccc4cccc(C)c24)C3)CC1CC#N | > 10000 | > 10000 | > 10000 | 101 |  | 88.6 | 102 | 101 | 93.2 | 86.6 | 83.9 | 47 | 53.1 |  |  | 78.4 | 69.3 | 73.1 | 75.9 | 76 | IC50 (second compound 0.0316 µM): > 10000 nM; viability, T/C (second compound 0.0316 µM, first compound 0.0316 µM): 106%; viability, T/C (second compound 0.0316 µM, first compound 0.1 µM): 87.1%; viability, T/C (second compound 0.0316 µM, first compound 0.316 µM): 64.3%; viability, T/C (second compound 0.0316 µM, first compound 1 µM): 74.9%; viability, T/C (second compound 0.0316 µM, first compound 3.16 µM): 83.2%; viability, T/C (second compound 0.0316 µM, first compound 10 µM): 76.6%; viability, T/C [16]: 74.5%; viability, T/C [17]: 77.1%; viability, T/C [18]: 69.2%; viability, T/C [19]: 77.8%; viability, T/C [20]: 62.2%; viability, T/C [21]: 69.6%; viability, T/C [22]: 81%; viability, T/C [23]: 30.5%; viability, T/C [24]: 1.65%; viability, T/C [25]: 31%; viability, T/C [26]: 35.1%
